Values after ≈ are worked out from the molar mass of the structure shown.
System: Acinetobacter baumannii
Assay: Antimicrobial activity against Acinetobacter baumannii
Type: functional

`C[C@@H](O)[C@H]1C(=O)N2C(C(=O)O)=C(S[C@@H]3CN[C@H](C(=O)N(C)C)C3)[C@H](C)[C@H]12` [MEROPENEM] gave an MIC of 8 µg/mL (≈ 20.9 µM).
